This is an account of results in patent US20120277239A1, “Compositions and Methods for Improving Night Vision” (ALPHA SYNERGY DEVELOPMENT INC., priority 2011, published 2012).

Structures can show the parent of a compound that is named as a salt. Where two headings read alike, the source gives them in different places.

The conditions of series [1]: cited from earlier work; for side effects upon application: in vivo; for floppy iris syndrome: systemic or topical α1-adrenoceptor antagonist (Oshika et al).
The test system of a further series is pupil size in dim light. The following applies: cited from earlier work.
Another series has as its system surface vasoconstriction. The following applies: brimonidine 0.01% to 0.05% weight by volume, particularly 0.01% to […].
The next series has as its system scotopic pupil. The following applies: brimonidine […]; for % reduction of scotopic pupil size (left eye) / Scotopic pupil size (mm) (left eye): contralateral control left eye, pH 7.0 to right eye; for % reduction of scotopic pupil size (right eye) / Scotopic pupil size (mm) (right eye): treated right eye, pH 7.0. The source says:
(§1) All pupil measurements were made using Marco video monitor pupillometry in a darkened room, which was captured via digital image capture and monitor adjustable caliper measurement. Once the dark adapted pupil was digitially captured, the instrument allows superiposition of a caliper with 0.1 mm increments to measure the pupil diameter.

For a further series, the system named is eye redness. The following applies: brimonidine […]; for Redness (from 0 to 4) (right eye): pH 7.0 to right eye.
Description: as §1

In another series the test system is pupil size. Particulars: for Onset of pupil reduction / Pupil reduction at 1 hour (mm) / Range (pupil size) at 3 hours: brimonidine […], pH 7.0 q am. The procedure: The pupil size was measured at the baseline and then 10 minutes and 3 hours after instillation for 3 consecutive weeks.
For series [2] the following is noted: pH 7.1; with added constituents of a balanced salt solution. The source says: The terms “salt” and “constituent of a balanced salt solution” are used interchangeably for the purposes of the present invention. They are a subset of agents that improve solubility of the inventive formulations.
The subject of the next series is intraocular pressure. The following applies: bunazosin at 0.3%; measured 6 hours post instillation; cited from earlier work.
The subject of another series is conjunctival hyperemia. Particulars: bunazosin at 0.3%; cited from earlier work.
Another series has as its system pupil. The following applies: bunazosin at 0.3%; cited from earlier work.
The mark [3] stands for this setting: Day 2.1 (follows 20 days of consecutive use).

Consider `Cc1ccccc1N1CCN(CCc2nnc3n2CCCC3)CC1` [dapiprazole, 5,6,7,8-tetrahydro-3-[2-(4-o,tolyl-1-piperazinypethyl]-8-triazolo[4,3-a]pyridine hydrochloride], for which the “side effects upon application” value in series [1] was “redness and frequently chemosis”. In the series on pupil size in dim light (clinical application), the “effect on pupil size in dim light” value is on record as “very little effect on pupil size in dim light”.
As to `Brc1c(NC2=NCCN2)ccc2nccnc12.O=C(O)C(O)C(O)C(=O)O` [brimonidine, 5-bromo-6-(2-imidazolin-2-ylamino)quinoxaline D-tartrate], the “surface vasoconstriction, redness and whiteness versus equivalent concentration of oxymetazoline” value in the series on surface vasoconstriction is “improved surface vasoconstriction, reduced surface redness, and improved whiter appearance”. Moreover, the “pupil modulation in contralateral control (left eye)” value in the series on scotopic pupil (pH 7.0 applied to right eye) was “delayed but significant pupil modulation”. In addition, the “% reduction of scotopic pupil size (left eye)” value in the series with scotopic pupil (time 0 hr (baseline)) worked out at 0%; with scotopic pupil (time 0.05 hr), 0%; in the series on scotopic pupil (time 0.5 hr), 0%; in the series with scotopic pupil (time 1.25 hr) it was 0%; in the series with scotopic pupil (time 2.25 hr) it was 20%; in the series on scotopic pupil (time 3.25 hr) it was 20%. The “Scotopic pupil size (mm) (left eye)” value with scotopic pupil (time 0 hr (baseline)) turned out to be 5 mm; with scotopic pupil (time 0.05 hr), 5 mm; in the series with scotopic pupil (time 0.5 hr), 5 mm; in the series with scotopic pupil (time 1.25 hr), 5 mm; in the series with scotopic pupil (time 2.25 hr), 4 mm; in the series with scotopic pupil (time 3.25 hr), 4 mm. Moreover, the “% reduction of scotopic pupil size (right eye)” value was 0% in the series on scotopic pupil (time 0 hr (baseline)); 0% with scotopic pupil (time 0.05 hr); 10% in the series on scotopic pupil (time 0.5 hr); 20% in the series with scotopic pupil (time 1.25 hr); 30% in the series with scotopic pupil (time 2.25 hr); 30% in the series with scotopic pupil (time 3.25 hr). Besides, the “Scotopic pupil size (mm) (right eye)” value with scotopic pupil (time 0 hr (baseline)) is on record as 5 mm; in the series on scotopic pupil (time 0.05 hr) it was 5 mm; with scotopic pupil (time 0.5 hr) it was 4.5 mm; in the series on scotopic pupil (time 1.25 hr), 4 mm; in the series on scotopic pupil (time 2.25 hr), 3.5 mm; in the series on scotopic pupil (time 3.25 hr) it was 3.5 mm. Moreover, the “eye whitening in the right eye” value with eye redness (pH 7.0, at 0.5 hr, 1.25 hr, 2.25 hr and 3.25 hr) is “significant eye whitening”. For the same compound, the “Redness (from 0 to 4) (right eye)” value with eye redness (time 0 hr (baseline)) is on record as 2; in the series with eye redness (time 0.05 hr), 0; in the series with eye redness (time 0.5 hr), 0; in the series with eye redness (time 1.25 hr), 0; in the series with eye redness (time 2.25 hr), 0; in the series with eye redness (time 3.25 hr) it was 0. In addition, the “pupil effect in one individual” value in the series on pupil dilation (brimonidine […], pH 6.5, one individual who later responded at pH 7.1) was “no pupil effect”. In addition, the “treated patients with pupil modulation” value in the series with pupil dilation (brimonidine […], pH 7.1, one eye, 4 individuals) is on record as 100%. The “individuals who experienced reduced dilation” value in the series on pupil dilation (topical brimonidine […], pH 6.5, one eye, 13 individuals, modest indoor lighting) came to 2 individuals. In the series on pupil dilation (topical brimonidine […], pH 6.5, 13 individuals), the “treated patients with reduced dilation” value worked out at 15.4%. Moreover, the “individuals with pupil modulation” value in the series with pupil dilation (topical brimonidine […], pH 7.1) is recorded as 4 out of 4. Further, in the series on pupil size (baseline before instillation, dark conditions), the Baseline pupil size is 6.2 mm. The “Onset of pupil reduction” value with pupil size (one eye, Day 1-20 Avg) was in the range of 10 to 15 min; in the series on pupil size (setting [3]), 10 to 15 min. Further, the “Pupil reduction at 1 hour (mm)” value with pupil size (Day 1-20 Avg) and with pupil size (setting [3]) was at least 1 mm each time. Moreover, the “Range (pupil size) at 3 hours” value in the series on pupil size (Day 1-20 Avg) and with pupil size (setting [3]) was 3.8-4.2 in each case.
Turning to `Cc1cccc([C@H](C)c2cnc[nH]2)c1C` [dexmedetomidine], the solubility in [2] is reported as at least 0.1%.
Turning to `C[C@H](Cc1cc2c(c(C(N)=O)c1)N(CCCO)CC2)NCCOc1ccccc1OCC(F)(F)F` [sidolosin], the floppy iris syndrome entry in series [1] is listed as “floppy iris syndrome”.
Regarding `CCOc1ccccc1OCCN[C@H](C)Cc1ccc(OC)c(S(N)(=O)=O)c1` [tamsulosin], the floppy iris syndrome result in [1] was “floppy iris syndrome”.
For the compound `CCCC(=O)N1CCCN(c2nc(N)c3cc(OC)c(OC)cc3n2)CC1` [Bunazosin], the intraocular pressure reduction entry with intraocular pressure is reported as “about 20%”. Also, in the series on conjunctival hyperemia, the “duration before return to baseline” value is given as “about 24 hours” and the “mean conjunctival hyperemia score” value was 1.5 /4. In the series with pupil, the pupil reduction entry was “about 1.0 mm”.
For `CC[C@@H]1C(=O)OC[C@@H]1Cc1cncn1C` [pilocarpine], in series [1], the “side effects upon application” value is “brow ache, ciliary muscle contraction and pseudo myopia (muscle spasm of accommodation), and redness”. Further, the duration of effect result in the series on pupil size in dim light (in vivo) is listed as “lasts only a few hours”. Moreover, the “pupil in dim light” value with pupil size in dim light (when first applied) was “below 3 mm”.
